In BindingDB's records for doi:10.1016/j.ejmech.2018.03.040 (University of Torino, 2018):

Biological target: Prostaglandin G/H synthase 2 (COX2, PTGS2) (Homo sapiens) (UniProt P35354)
Test: Inhibition of human COX2 assessed as reduction in PGF2alpha production by ELISA

Chain of Prostaglandin G/H synthase 2 (COX2, PTGS2) (Homo sapiens) (P35354 whole entry, looked up): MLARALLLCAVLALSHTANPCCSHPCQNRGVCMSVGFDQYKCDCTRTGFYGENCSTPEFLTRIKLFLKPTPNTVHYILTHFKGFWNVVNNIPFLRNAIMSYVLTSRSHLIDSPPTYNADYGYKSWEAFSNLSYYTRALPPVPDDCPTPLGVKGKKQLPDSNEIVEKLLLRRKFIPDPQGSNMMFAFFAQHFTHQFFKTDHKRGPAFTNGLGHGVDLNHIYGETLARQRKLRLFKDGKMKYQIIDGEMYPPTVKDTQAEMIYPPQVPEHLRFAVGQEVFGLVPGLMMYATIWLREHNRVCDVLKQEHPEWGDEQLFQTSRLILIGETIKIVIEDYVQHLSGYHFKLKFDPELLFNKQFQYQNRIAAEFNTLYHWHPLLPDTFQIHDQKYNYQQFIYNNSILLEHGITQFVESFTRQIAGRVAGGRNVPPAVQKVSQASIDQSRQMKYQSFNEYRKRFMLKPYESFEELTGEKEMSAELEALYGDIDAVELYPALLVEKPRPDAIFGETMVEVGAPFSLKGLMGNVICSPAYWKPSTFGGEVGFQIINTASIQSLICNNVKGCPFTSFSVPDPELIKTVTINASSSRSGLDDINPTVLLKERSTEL

COc1ccc(Cn2nnc(O)c2C(=O)Nc2cccc(C(F)(F)F)c2)cc1OC
IC50: > 100 µM

O=C(Nc1cccc(C(F)(F)F)c1)c1c(O)nnn1Cc1ccc(OC(F)(F)F)cc1
IC50: > 100 µM

O=[N+]([O-])c1cccc(Nc2cccc3onc(O)c23)c1
IC50: > 100 µM

Oc1noc2cccc(Nc3cccc(S(F)(F)(F)(F)F)c3)c12
IC50: > 100 µM

Oc1noc2cccc(Nc3cc(C(F)(F)F)cc(C(F)(F)F)c3)c12
IC50: > 100 µM

Oc1noc2ccc(Nc3cccc(C(F)(F)F)c3)cc12
IC50: > 100 µM

Oc1noc2cccc(Nc3cccc(C(F)(F)F)c3)c12
IC50: > 100 µM
